Our source for the TGI and GI50 values is PubChem BioAssay (NCI).

Structures are written as SMILES. “And” between values parts separate entries of the source, which are not always exact repeats. Equal entries are not always repeated.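 Assay format: 96-well plates, 48-hour exposure. GI50 marks 50% less growth. TGI marks complete inhibition of growth.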

Holding throughout (experiment): NCI tumour cell line growth inhibition, 48 h
The subject of test [1] is P388 leukemia.
Test [2] has as its system LOX IMVI melanoma.
Test [3] has as its system SNB-78 CNS.
The test system of test [4] is KM20L2 colon.
Test [5] has as its system HOP-18 NSCLC.
Test [6] deals with DMS 273 small cell lung.
The subject of test [7] is CAKI-1 renal.
Test [8] concerns T-47D breast.
Test [9] has as its system PC-3 prostate.
Test [10] has as its system MDA-MB-231 breast.
Test [11] relates to BT-549 breast.
Test [12] concerns MDA-MB-435.
The subject of test [13] is HS 578T breast.
Test [14] deals with MDA-N.
Test [15] has as its system LXFL 529 NSCLC.
Test [16] deals with 786-0 renal.
Test [17] relates to SR leukemia.

For `OCC#CCNCl`, the TGI in [1], in test [2], in test [3], in [4], in test [5] and in [6] was over 100 µM in each case.
In the case of `O=[N+]([O-])C(=C/c1ccccc1)/C(=C\c1ccccc1)[N+](=O)[O-]`, the TGI worked out at 29 µM in test [7]; 48.2 µM in [8]; 44.7 µM in test [9]; 29.1 µM in [2]; 26.2 µM in [10]; 31.4 µM in [11]. Also, the TGI worked out at 30.3 µM in test [12], 77.1 µM in [13] and 33.1 µM in test [14].
Turning to `CCNC(=O)C(C)C1CCC2(C)C=CC(=O)C(C)=C2C1O` (stereo not drawn), the TGI in test [7], in test [1], in test [2], in test [3], in test [4] and in test [5] was over 100 µM in each case. This compound yielded a TGI in test [6] of over 100 µM.
Take `CN(C)CCNc1ccc2ncn3c4ccccc4c(=O)c1c23`: the TGI in test [7] was 12.9 µM; in [2] it was 2.92 µM; in test [15], 19.2 µM; in test [16], 13.9 µM; in test [3], 19.8 µM; in test [4] it was 13.6 µM. In addition, the TGI in test [5] is 33 µM; in test [17], over 100 µM.
In the case of `O=C1OC(c2ccccc2)=NC1c1ccccc1` (stereo not drawn), the TGI in test [7], in test [8], in test [9], in [2], in [10] and in [11] was over 100 µM each time. Also, the TGI in test [12], in test [16], in test [13], in test [14] and in [17] was over 100 µM in each case.
In the case of `COc1ccccc1/C=C(/C)[N+](=O)[O-]`, the GI50 in [7] is 2.13 µM and 0.687 µM; in test [2] it was 0.263 µM; in test [17] it was 0.237 µM and 1.5 µM. Also, the TGI in test [7] is 4.85 µM and 1.92 µM; in test [8], 4.64 µM and 3.37 µM; in test [9], 6.5 µM and 5.37 µM; in test [2] it was 2.1 µM; in [10] it was 17.7 µM and 7.87 µM; in [12] it was 9.18 µM and 3.64 µM. Besides, the TGI was over 100 µM in test [16]; 29.3 µM and 26.9 µM in [13]; 1.61 µM and 5.08 µM in test [17].
Consider `FC(F)(F)c1ccc2c(c1)N(CCCNCCN1CCOCC1)c1ccccc1S2`, for which the TGI in [2] was determined as 21.2 µM; in [15], 25.6 µM; in [3], 23.8 µM; in test [4], 17 µM; in test [6], 36.7 µM; in test [17], 21.8 µM.
Regarding `CC(C)=CCCC(C)(OC1OC(CO)C(O)C(O)C1O)C1CCC2(C)C1C(O)CC1C3(C)CCC(O)C(C)(C)C3C(OC3OC(CO)C(O)C(O)C3OC3OC(C)C(O)C(O)C3O)CC12C` (stereo not drawn) (tested in a mixture with another compound), the TGI in test [7], in test [8], in [9], in [2], in test [10] and in [11] was over 75 µM in each case. The TGI in [12], in test [16], in test [13], in test [14] and in [17] was over 75 µM in each case.
Consider `O=C(NN1C(=O)C(Cl)C1c1ccccc1O)c1ccccc1O` (stereo not drawn), for which the TGI in [15], in test [4] and in [17] was over 100 µM in each case.
In the case of `CCOC(=O)Cc1cc(OC)c(OC)cc1/C(Cl)=C(\CO)c1ccc(OC)c(OC)c1`, the TGI in test [7], in test [2], in [3], in test [4], in [5] and in test [6] was over 100 µM in each case.
As to `C[N+](C)(CCCCCC[N+](C)(C)CCCN1C(=O)c2cccc3cccc(c23)C1=O)CCCN1C(=O)c2cccc3cccc(c23)C1=O`, the TGI in test [7], in [8], in test [9], in test [2], in [10] and in test [11] was over 100 µM in each case. The TGI in [12], in test [13], in [14] and in test [17] was over 100 µM each time.
For `C/C(=C/C(=O)Nc1ccccc1)Nc1onc(C)c1C`, the TGI in test [1], in [2], in test [3], in test [4], in [5] and in [6] was over 100 µM in each case.
On to `Cc1c(O)c(=O)ccn1CCN`, for which the TGI in [7], in test [2], in [15], in [16], in test [3] and in test [4] was over 100 µM in each case. Also, the TGI in test [5] and in test [6] was over 100 µM throughout.
For the compound `O=NN1C(c2ccccc2)CNC(=O)CC1c1ccccc1` (stereo not drawn), the TGI was over 100 µM in test [7]; 62.3 µM in test [1]; over 100 µM in test [2]; over 100 µM in [3]; 63.5 µM in test [4]; over 100 µM in test [5]. In [6], this compound yielded a TGI of over 100 µM.
Take `N#C/C(=C\c1ccncc1)c1csc2ccccc12`: the TGI in test [7] was over 88 µM; in test [1], 39.2 µM; in test [2], 47.9 µM; in test [3], 73.8 µM; in test [4], 54.6 µM; in test [5], 99.7 µM. The TGI in test [6] amounted to 73.6 µM.
Regarding `O=S(O)CCCCCSSc1ccccc1`, the TGI was 38.4 µM in [2], 37.9 µM in [15], over 100 µM in [3] and 35 µM in test [17].
With `Nc1nc(Nc2ccc(Cl)c(Cl)c2)nc2nc[nH]c12`, the TGI in test [7] was 25.1 µM; in test [8], 25.1 µM; in test [9] it was 41.2 µM; in test [2] it was 36.9 µM; in [10], 31.3 µM; in [11], 25.8 µM. For the same compound, the TGI in [12] is 32 µM; in [16] it was 31.3 µM; in test [13], 20.2 µM; in test [14], 33.5 µM; in test [17] it was 33.2 µM.
For the compound `O=C1C(Cl)N(c2c(Cl)cccc2Cl)C1c1c[nH]c2ccccc12` (stereo not drawn), the TGI in test [15], in [4] and in test [17] was over 100 µM throughout.
Regarding `S=c1sc2c(s1)SC(c1ccccc1)CS2` (stereo not drawn), the TGI in [7], in [1], in test [2], in test [3], in test [4] and in test [5] was over 100 µM in each case. Also, the TGI in test [6] is over 100 µM.
For the compound `Cc1ccc(/C=C2\Sc3scc(-c4ccccc4)[n+]3C2=O)cc1`, the TGI is 33.4 µM in test [7]; over 100 µM in [8]; over 100 µM in [9]; over 54.5 µM in test [2]; 65 µM in test [10]; 50.9 µM in test [11]. Further, the TGI in test [12] was over 44.3 µM; in [16], over 56 µM; in [13], 37.5 µM; in test [14], over 67.1 µM; in test [17], 26.4 µM.
